This passage reports inhibition, Activity and viability results from ChEMBL document CHEMBL3112432, “Synthesis of 5α-cholestan-6-one derivatives and their inhibitory activities of NO production in activated microglia: discovery of a novel neuroinflammation inhibitor” (Bioorg Med Chem Lett, 2014).

Structures are written as SMILES. Activity calls are given as the source filed them. The rule behind the calls is not given here.

Data set [1] deals with BV-2. Description: Antiinflammatory activity in mouse BV2 cells assessed as inhibition of LPS-stimulated COX-2 protein expression at 40 uM preincubated for 30 mins followed by LPS-stimulation measured after 16 hrs by Western blotting analysis. The data set is classed as functional, cell-based.
For data set [2], the system named is Mus musculus. In words: Neuroprotective activity in ip dosed mouse middle cerebral artery occlusion model assessed as reduction in infarction volume administered 1 hr prior to onset of ischemia measured after 24 hrs by TTC staining-based microscopic analysis. The data set is classed as functional, organism-based.
Data set [3] concerns BV-2. Description: Antiinflammatory activity in mouse BV2 cells assessed as inhibition of LPS-stimulated iNOS mRNA expression preincubated for 30 mins followed by LPS-stimulation by RT-PCR analysis. Type of data set: functional, cell-based.
The test system of data set [4] is BV-2. In words: Antiinflammatory activity in mouse BV2 cells assessed as inhibition of LPS-stimulated COX-2 mRNA expression preincubated for 30 mins followed by LPS-stimulation by RT-PCR analysis. The data set is classed as functional, cell-based.
Data set [5] concerns BV-2. In words: Antiinflammatory activity in mouse BV2 cells assessed as inhibition of LPS-stimulated iNOS protein expression at 40 uM preincubated for 30 mins followed by LPS-stimulation measured after 16 hrs by Western blotting analysis. Type of data set: functional, cell-based.
Data set [6] in a line: Antiinflammatory activity in LPS-stimulated mouse BV2 cells assessed as inhibition of NO production at 40 uM after 24 hrs by Griess method relative to control. Type of data set: functional. Conditions: BV-2, 24 h.
Data set [7] concerns BV-2. In words: Antiinflammatory activity in LPS-stimulated mouse BV2 cells assessed as inhibition of NO production after 24 hrs by Griess method. Type of data set: functional, cell-based.
Data set [8] in a line: Cytotoxicity against mouse BV2 cells assessed as cell viability at 40 uM after 24 hrs by MTT assay relative to control. The data set is classed as cell-based, BV-2. The conditions noted are these: read-out: Activity.
Data set [9] deals with BV-2. Description: Antiinflammatory activity in mouse BV2 cells assessed as inhibition of LPS-stimulated TNF-alpha mRNA expression preincubated for 30 mins followed by LPS-stimulation by RT-PCR analysis. The data set is classed as functional, cell-based.
Data set [10] concerns Mus musculus. Description: Neuroprotective activity in mouse middle cerebral artery occlusion model assessed as reduction in activated microglial cells in medial periphery of cortical infarct area at 30 mg/kg, ip administered 1 hr prior to onset of ischemia measured after 24 hrs by Iba-1 staining-based microscopic analysis. Type of data set: functional, organism-based. Also noted: dose 30 mg/kg.

In data set [11] the test system is BV-2. In words: Antiinflammatory activity in mouse BV2 cells assessed as inhibition of LPS-stimulated IL-1beta mRNA expression preincubated for 30 mins followed by LPS-stimulation by RT-PCR analysis. Type of data set: functional, cell-based.

As to `COC(=O)CC[C@@H](C)[C@H]1CC[C@H]2[C@@H]3[C@H](O)C(=O)[C@H]4C[C@H](O)CC[C@]4(C)[C@H]3CC[C@]12C`, the inhibition entry in data set [1] and in data set [5] was “Active” in each case. Further, in data set [2], the Activity result was “Dose-dependent effect”. For the same compound, the inhibition entry in data set [3], in [4], in [7], in data set [9] and in data set [11] was “Dose-dependent effect” in each case. Also, the inhibition at 40 µM in data set [6] was found to be 73.6%. Moreover, the viability at 24 h, 40 µM in data set [8] is 95.4%. Besides, the result in data set [10] was Active.
